Measurements as given in US9968606B2, “Deuterated compounds for treating cancer and related diseases and conditions, and compositions and methods thereof” (NeuForm Pharmaceuticals, Inc., priority 2015, dated 2018).
Where two headings read alike, the source gives them in different places.

Key:
[1] = Drug metabolism and pharmacokinetic evaluation in human liver microsome suspensions (percentage of compound remaining vs. incubation time); format: in vitro ADME; details: human liver microsomes, NADPH, 37° C., after 4 hour, combo incubation with Osimertinib
Method: In vitro drug metabolism and pharmacokinetic evaluation of D16-Osimertinib, and D19-Osimertinib against Osimertinib was conducted in Human Liver Microsome suspensions. The stability time course samples were prepared in house and extracted immediately by protein precipitation method using MeCN containing 400 ng/mL carbutomide as the internal standard (IS). The samples were analyzed on a Waters Acquity UPLC system coupled with a Bruker Q-tof mass spectrometer. The peak areas of respective extracted ion chromatograms were used for relative comparison. The sample preparation was performed according to the following procedure: […] The samples were put in 37° C. incubator for 10 minutes. […] The samples were vortexed and centrifuged at 13,000 g for approximately 5 minutes, then supernatants were taken and stored in −20° C. freezer. The sampling at a time point was triplicate. After the last samples were taken and they were placed in −20° C. at least 1 hour. All samples were put into a refrigerator at approximate 4° C. for 30 minutes. The samples were vortexed. Then approximately 100 μL of the supernatants were transferred to corresponding wells of a 96-well plate. The samples were diluted with 100 μL of 0.1% FA in water. The samples were vortexed and briefly centrifuged for LC-HRMS analysis. Sample chamber for LC-HRMS was kept at approximate 4° C. […]

wild-type EGFR = wild-type EGFR (Homo sapiens, UniProt P00533); details: reportedly; cited from earlier work
wild-type EGFR, sequence (P00533 25-1210): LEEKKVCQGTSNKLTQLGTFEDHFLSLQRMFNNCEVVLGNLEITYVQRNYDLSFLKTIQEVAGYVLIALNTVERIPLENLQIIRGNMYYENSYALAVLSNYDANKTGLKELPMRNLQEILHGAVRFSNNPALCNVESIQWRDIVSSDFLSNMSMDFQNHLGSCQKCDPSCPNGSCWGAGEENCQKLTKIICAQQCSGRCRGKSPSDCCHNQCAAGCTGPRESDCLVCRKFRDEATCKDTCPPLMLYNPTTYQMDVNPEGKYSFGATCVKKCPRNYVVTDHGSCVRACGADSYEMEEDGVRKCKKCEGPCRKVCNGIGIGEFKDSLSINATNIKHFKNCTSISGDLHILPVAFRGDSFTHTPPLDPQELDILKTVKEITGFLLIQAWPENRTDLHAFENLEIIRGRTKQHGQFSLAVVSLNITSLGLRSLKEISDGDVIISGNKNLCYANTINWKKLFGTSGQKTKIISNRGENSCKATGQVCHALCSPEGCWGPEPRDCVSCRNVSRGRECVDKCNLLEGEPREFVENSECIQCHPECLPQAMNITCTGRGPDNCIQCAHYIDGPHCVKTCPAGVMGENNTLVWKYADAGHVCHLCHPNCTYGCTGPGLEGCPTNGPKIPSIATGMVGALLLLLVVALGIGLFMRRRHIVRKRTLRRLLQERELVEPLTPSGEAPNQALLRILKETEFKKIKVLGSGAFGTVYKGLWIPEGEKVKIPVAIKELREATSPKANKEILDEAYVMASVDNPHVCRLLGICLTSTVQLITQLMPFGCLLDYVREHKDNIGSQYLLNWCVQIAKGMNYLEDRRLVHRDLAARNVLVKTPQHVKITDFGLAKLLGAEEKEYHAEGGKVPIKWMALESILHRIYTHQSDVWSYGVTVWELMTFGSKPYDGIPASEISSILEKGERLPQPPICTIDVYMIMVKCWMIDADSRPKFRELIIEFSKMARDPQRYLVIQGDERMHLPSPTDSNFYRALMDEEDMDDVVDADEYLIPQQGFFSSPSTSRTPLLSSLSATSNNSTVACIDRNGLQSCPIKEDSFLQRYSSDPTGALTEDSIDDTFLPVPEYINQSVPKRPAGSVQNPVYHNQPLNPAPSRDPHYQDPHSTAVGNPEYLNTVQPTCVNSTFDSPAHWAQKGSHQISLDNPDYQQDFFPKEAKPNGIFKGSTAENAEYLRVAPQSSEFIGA

[2] = Reactivity as covalent inhibitor: half-life in buffered aqueous cysteine solution; details: for half-life: PBS buffer with cysteine, 37° C.; for Improvement (%) of t½ in cysteine solution: deuterated compound vs. reference osimertinib
Method: The combo solutions were prepared by mixing individual evaluated compounds with reference osimertinib. Then, they were added to PBS buffer solution with cysteine at 37° C. The stability time course samples (in triplicate) were taken and added to prechilled quenching solution and then store at −70° C. freezer. The samples were analyzed on a Waters Acquity UPLC system coupled with a Bruker Q-tof mass spectrometer. The peak areas of respective extracted ion chromatograms were used for relative comparison.

[3] = Monkey pharmacokinetic study on deuteration of indole N-methyl group; format: in vivo; details: cynomolgus monkey, blood; male cynomolgus monkeys, single oral administration, 20 mg/Kg; read-out: AUC(0-t) of the parent
Method: A total of two (2) cynomolgus monkeys (male) were placed on study. Washout period lasted 7 days between two phases. Each test article was administered to an individual animal via a single oral administration for all groups. The dose levels were 20 mg/Kg. All animals were given detailed clinical examinations prior to administration, and no abnormality was observed. Cage side observation was conducted on all animals twice daily throughout the duration of administration. All animals were weighed before dosing on the day of administration. Blood samples were collected predose and postdose 0.25, 0.5, 1, 2, 3, 4, 6, 8, 12, 24, 36 and 48 h from the femoral vein at appropriate time points for analysis. These samples were analyzed by LC-MS/MS.

[4] = system: A431 human squamous carcinoma cells (WT EGFR); assay: Cell-based experiment on inhibition of WT-EGFR: cell proliferation of A431 cells
Source text: (§1) A431 cells are a model human cell line which express abnormally high levels of the wide-type epidermal growth factor receptor (WT EGFR). WT EGFR inhibitors can affect cell prolification of the cells. Similarly the prolification of HepG2 hepatoma cells can be inhibited by WT EGFR inhibitors.

HepG2 hepatoma cells = assay: Cell-based experiment on inhibition of WT-EGFR: cell proliferation of HepG2 hepatoma cells
Source text: as §1

[5] = combo solution with osimertinib, read-out: Half-life in cysteine solution, Deuterated (t½ h) (converted)

| Structure (SMILES) | difference between the concentrations of Osimertinib and the deuterated compound (percentage remaining) [1] | half-life [2, 5] | Improvement (%) of t½ in cysteine solution [2] | further results |
| --- | --- | --- | --- | --- |
| [2H]C([2H])([2H])N(c1cc(OC)c(Nc2nccc(-c3cn(C([2H])([2H])[2H])c4ccccc34)n2)cc1NC(=O)C=C)C([2H])([2H])C([2H])([2H])N(C([2H])([2H])[2H])C([2H])([2H])[2H] [D16-osimertinib] | ~26% |  |  |  |
| C=CC(=O)Nc1cc(Nc2nccc(-c3cn(C)c4ccccc34)n2)c(OC)cc1N(C)CCNC [AZ7550] |  |  |  | affinity towards wild-type EGFR (wild-type EGFR): low affinity towards wild-type EGFR |
| C=CC(=O)Nc1cc(Nc2nccc(-c3cn(C)c4ccccc34)n2)c(OC)cc1N(C)CCN(C)C [Osimertinib, N-(2-{2-dimethylaminoethyl-methylamino}-4-methoxy-5-{[4-(1-methylindol-3-yl)pyrimidin-2-yl]amino}phenyl)prop-2-enamide] |  |  |  | AUC(0-t) [3]: 654 ng·h/mL; cell viability [4]: did not affect the viability of cells; cell viability (HepG2 hepatoma cells): did not affect the viability of cells; half-life ([2]; reference osimertinib in combo solution with the deuterated compound, read-out: Half-life in cysteine solution, Reference (t½ h) (converted)): 5.41 h |

The next lines start with results.

| difference between the concentrations of Osimertinib and the deuterated compound (percentage remaining) [1] | half-life [2, 5] | Structure (SMILES) | Improvement (%) of t½ in cysteine solution [2] | further results |
| --- | --- | --- | --- | --- |
|  | 4.56 h | [2H]C([2H])=C([2H])C(=O)Nc1cc(Nc2nccc(-c3cn(C([2H])([2H])[2H])c4ccccc34)n2)c(OC)cc1N(C)CCN(C)C [D6-osimertinib] | 23% |  |
|  | 4.05 h | [2H]C([2H])=C([2H])C(=O)Nc1cc(Nc2nccc(-c3cn(C)c4ccccc34)n2)c(OC)cc1N(C)CCN(C)C [D3-osimertinib] | 33% |  |
| ~28% | 2.75 h | [2H]C([2H])=C([2H])C(=O)Nc1cc(Nc2nccc(-c3cn(C([2H])([2H])[2H])c4ccccc34)n2)c(OC)cc1N(C([2H])([2H])[2H])C([2H])([2H])C([2H])([2H])N(C([2H])([2H])[2H])C([2H])([2H])[2H] [D19-osimertinib] | 43% |  |
